This passage reports target mRNA inhibition results from the OligoGym collection.

In the data set the target is SNHG14. To be noted: ASO.
Where [1] appears, read: Mouse Primary Neuronal Cell, 0.005 µM.

After the bases stand the sugars from the 5' end (letter, count) and the backbone: PS all phosphorothioate, else s phosphorothioate and o phosphodiester by linkage. Methylation of C is not given here. l = locked nucleic acid (LNA); d = 2'-deoxy (DNA)

In the case of “GTTTATACCCTTTCCAAT (sugars ldlldddddddddldlll, PS)”, the target mRNA inhibition (Human Neuronal Cell, 7.5 µM) is 63%.
On to “GTTTCCATCTACTATTAA (sugars l3 d1 l1 d9 l4, PS)”, for which the target mRNA inhibition (Human Neuronal Cell, 7.5 µM) was 55%.
The same measure, in the same setting: the value for “GTTTCCATCTACTATTAA (sugars ldddlldddddddlldll, PS)” was 53%.
Same read-out and setting: the value for “GTTTCCATCTACTATTAA (sugars lllddlddddddldddll, PS)” was 47%; that for “GTTTCCATCTACTATTAAT (sugars l1 d2 l2 d12 l2, PS)” was 62%; that for “GTTTCCATCTACTATTAAT (sugars ldldddddddddlldddll, PS)” was 51%.
On the same count and under the same terms, the value for “TAAAATTATTTATACACCA (sugars l3 d1 l2 d9 l4, PS)” was 59%.
Take “TAAAATTATTTATACACCA (sugars lddlllddddddldlllll, PS)”: the target mRNA inhibition (Human Neuronal Cell, 7.5 µM) was 30%.
The same measure, in the same setting: to “TAAAATTATTTATACACCA (sugars lldlldddddddldldlll, PS)” belongs 47%.
The same measure, in the same setting: to “TAAAATTATTTATACACCA (sugars lllldlddddddllddlll, PS)” belongs 31%.
Same read-out and setting: to “TAAAATTATTTATACACCAT (sugars lldddldddddddldlllll, PS)” belongs 46%.
For the sequence TAAGCTCCATATTTAA (sugars l3 d10 l3, PS), the target mRNA inhibition turned out to be 3% (Human Neuronal Cell, 0.2 µM) and 12% (Human Neuronal Cell, 1 µM).
For “TAATCCCATACATCTAT (sugars l2 d11 l4, PS)” the same measures were 50% and 61%.
For “TACACAAATACTTAAATCA (sugars l4 d13 l2, PS)”, in that order: 7% and 19%.
Turning to “TACACTTAATTATACTTCCA (sugars lddddldddddddldlddll, PS)”, the target mRNA inhibition (Human Neuronal Cell, 7.5 µM) worked out at 60%.
The same measure, in the same setting: to “TACACTTAATTATACTTCCA (sugars lddldllddddddddlddll, PS)” belongs 56%.
As for TACATATTGTACTTCT (sugars l4 d10 l2, PS), the target mRNA inhibition was 18% (Human Neuronal Cell, 0.2 µM) and 23% (Human Neuronal Cell, 1 µM).
For the sequence TACATCTCATACTTGC (sugars l2 d11 l3, PS), the target mRNA inhibition under setting [1] amounted to 96.5%.
Regarding TACATCTCATACTTGC (sugars l3 d10 l3, PS), the target mRNA inhibition (Human Neuronal Cell, 0.2 µM) came out at 4%; the target mRNA inhibition (Human Neuronal Cell, 1 µM) was -2%; the target mRNA inhibition (Human Neuronal Cell, 5 µM) came out at 12%; the target mRNA inhibition under setting [1] came out at 97.4%.
For “TACATCTCATACTTGCT (sugars l2 d13 l2, PS)” the same measures were 9%, 23%, -10% and 84.5%.
Take TACATTGACACCTAAT (sugars l4 d10 l2, PS): the target mRNA inhibition by setting is: (Human Neuronal Cell, 0.2 µM) 19%; (Human Neuronal Cell, 1 µM) 17%.
Consider “TACTCTGCAATACACC (sugars l1 d2 l2 d9 l2, PS)”, for which, under “Human Neuronal Cell, 7.5 µM”, the target mRNA inhibition is 65%.
Regarding “TACTCTGCAATACACC (sugars l1 d3 l1 d7 l4, PS)”, the target mRNA inhibition (Human Neuronal Cell, 7.5 µM) amounted to 63%.
On the same count and under the same terms, to “TACTCTGCAATACACC (sugars l2 d1 l2 d9 l2, PS)” belongs 64%.
As to TACTCTGCAATACACC (sugars l2 d10 l4, PS), the target mRNA inhibition runs as follows: (Human Neuronal Cell, 0.2 µM) 50%; (Human Neuronal Cell, 1 µM) 55%.
“TACTCTGCAATACACCA (sugars l1 d3 l1 d10 l2, PS)”: the target mRNA inhibition (Human Neuronal Cell, 7.5 µM) worked out at 54%.
Same read-out and setting: to “TACTCTGCAATACACCA (sugars l2 d10 l1 d2 l2, PS)” belongs 61%.
Consider “TACTCTGCAATACACCA (sugars l2 d11 l4, PS)”, for which the target mRNA inhibition came out at 57% (Human Neuronal Cell, 0.2 µM) and 71% (Human Neuronal Cell, 1 µM).
With “TACTCTGCAATACACCA (sugars ldlddddddddddldll, PS)”, the target mRNA inhibition (Human Neuronal Cell, 7.5 µM) worked out at 64%.
On to “TAGTCCTTCCTTTAACC (sugars l2 d13 l2, PS)”, for which the target mRNA inhibition amounted to 20% (Human Neuronal Cell, 0.2 µM) and 16% (Human Neuronal Cell, 1 µM).
With “TATACCTTTCTTTAACCCTT (sugars l1 d15 l1 d1 l2, PS)”, the target mRNA inhibition (Human Neuronal Cell, 7.5 µM) was 58%.
Still for that read-out and setting: to “TATACCTTTCTTTAACCCTT (sugars lddldlddddddddddldll, PS)” belongs 62%.
On to TATAGCCATTCTATCT (sugars l4 d10 l2, PS), for which the target mRNA inhibition came out at 61% (Human Neuronal Cell, 0.2 µM) and 67% (Human Neuronal Cell, 1 µM).
For “TATCTCATGACCACCTA (sugars l2 d12 l3, PS)”, in that order: 43% and 52%.
“TATCTTTCCATTTATTTCC (sugars l1 d2 l1 d13 l2, PS)”: for the setting “Human Neuronal Cell, 7.5 µM”, the target mRNA inhibition was determined as 41%.
On the same count and under the same terms, to “TATCTTTCCATTTATTTCC (sugars l2 d12 l1 d2 l2, PS)” belongs 44%.
Consider “TATTCTCAATTGCACTT (sugars l4 d11 l2, PS)”, for which the target mRNA inhibition runs as follows: (Human Neuronal Cell, 0.2 µM) 46%; (Human Neuronal Cell, 1 µM) 61%.
For TATTGATATTTACTCT (sugars l2 d10 l4, PS) the same measures were 30% and 38%.
Turning to “TATTGATTCAATTCCCT (sugars l1 d2 l1 d10 l3, PS)”, where the note is “Human Neuronal Cell, 7.5 µM”, the target mRNA inhibition came out at 72%.
For “TATTGATTCAATTCCCT (sugars l1 d10 l1 d2 l3, PS)”, the target mRNA inhibition (Human Neuronal Cell, 7.5 µM) was 65%.
As for “TATTGATTCAATTCCCT (sugars l1 d12 l4, PS)”, the target mRNA inhibition (Human Neuronal Cell, 7.5 µM) came to 57%.
Same read-out and setting: to “TATTGATTCAATTCCCT (sugars l2 d9 l1 d2 l3, PS)” belongs 51%.
Still for that read-out and setting: the value for “TATTGATTCAATTCCCT (sugars l3 d9 l2 d1 l2, PS)” was 65%.
Take TATTTGTCACCAAACC (sugars l3 d10 l3, PS): the target mRNA inhibition reads like this: (Human Neuronal Cell, 0.2 µM) 23%; (Human Neuronal Cell, 1 µM) -2%.
For TCACCTAATAGCACCA (sugars l2 d10 l4, PS), in that order: 60% and 69%.
On to TCATCCCTCCAAGAAA (sugars l2 d12 l2, PS), for which the target mRNA inhibition runs as follows: (Human Neuronal Cell, 0.2 µM) -16%; (Human Neuronal Cell, 1 µM) -28%; (Human Neuronal Cell, 5 µM) -48%.
With “TCCAAACTGTCTTCTAA (sugars l3 d12 l2, PS)”, the target mRNA inhibition (Human Neuronal Cell, 0.2 µM) stood at 36% and the target mRNA inhibition (Human Neuronal Cell, 1 µM) worked out at 23%.
For TCCAACATAGATCCTC (sugars l2 d10 l4, PS) the same measures were 52% and 65%.
For “TCCAACATAGATCCTCT (sugars l2 d11 l4, PS)”, in that order: 45% and 55%.
On to TCCATAGAATTCTTCA (sugars l4 d10 l2, PS), for which the target mRNA inhibition is, setting by setting: (Human Neuronal Cell, 0.2 µM) 51%; (Human Neuronal Cell, 1 µM) 43%.
As to “TCCATTTATTTCCATTTAT (sugars ldlldddddddddldddll, PS)”, under “Human Neuronal Cell, 7.5 µM”, the target mRNA inhibition was found to be 50%.
Same read-out and setting: to “TCCATTTATTTCCATTTAT (sugars llddlddddddddldldll, PS)” belongs 40%; to “TCCATTTATTTCCATTTATT (sugars ldlldddddddddlddddll, PS)”, 46%.
Consider TCCTATGTTAATACTT (sugars l3 d10 l3, PS), for which the target mRNA inhibition came out at 14% (Human Neuronal Cell, 0.2 µM) and 34% (Human Neuronal Cell, 1 µM).
For TCCTCTGCTTATAACT (sugars l3 d11 l2, PS), in that order: 51% and 77%.
For TCTCTAATCCTATTCC (sugars l4 d10 l2, PS), in that order: 53% and 58%.
For the sequence “TCTGTATACACCATCCC (sugars l2 d13 l2, PS)”, the target mRNA inhibition (Human Neuronal Cell, 7.5 µM) came to 62%.
On the same count and under the same terms, the value for “TCTGTATACACCATCCCA (sugars lddddlddddddddldll, PS)” was 61%.
For “TCTTATCCTTGAATTTC (sugars l4 d11 l2, PS)”, the target mRNA inhibition runs as follows: (Human Neuronal Cell, 0.2 µM) 37%; (Human Neuronal Cell, 1 µM) 33%.
For TCTTCAAGAATTCTCT (sugars l2 d10 l4, PS) the same measures were 44% and 46%.
For “TCTTCAGCTTTCTAAAT (sugars l4 d11 l2, PS)” the same measures were 5% and 24%.
For TCTTTAAGCTTCCCAC (sugars l2 d10 l4, PS) the same measures were 34% and 44%.
Consider “TCTTTCCATTTATTTCCA (sugars l4 d12 l2, PS)”, for which the target mRNA inhibition reads like this: (Human Neuronal Cell, 0.2 µM) 53%; (Human Neuronal Cell, 1 µM) 60%.
With “TCTTTCCATTTATTTCCAT (sugars l2 d3 l1 d11 l2, PS)”, the target mRNA inhibition (Human Neuronal Cell, 7.5 µM) is 54%.
Turning to “TCTTTCCATTTATTTCCAT (sugars l2 d13 l1 d1 l2, PS)”, the target mRNA inhibition (Human Neuronal Cell, 7.5 µM) was found to be 42%.
Still for that read-out and setting: to “TCTTTCCATTTATTTCCATT (sugars l2 d3 l1 d12 l2, PS)” belongs 47%.
On the same count and under the same terms, to “TCTTTCCATTTATTTCCATT (sugars l2 d4 l1 d10 l3, PS)” belongs 57%.
Still for that read-out and setting: the value for “TCTTTCCATTTATTTCCATT (sugars l2 d13 l1 d2 l2, PS)” was 42%; that for “TCTTTCCATTTATTTCCATT (sugars l2 d14 l1 d1 l2, PS)” was 46%.
Turning to TGAACAACTTCTATCA (sugars l3 d10 l3, PS), the target mRNA inhibition (Human Neuronal Cell, 0.2 µM) is 17% and the target mRNA inhibition (Human Neuronal Cell, 1 µM) is 16%.
For TGTATATAACTATTCC (sugars l4 d10 l2, PS) the same measures were 21% and 20%.
Consider “TGTTTATACCCTTTCCAA (sugars l1 d1 l2 d12 l2, PS)”, for which the target mRNA inhibition (Human Neuronal Cell, 7.5 µM) amounted to 63%.
The same measure, in the same setting: to “TGTTTATACCCTTTCCAA (sugars l2 d2 l1 d11 l2, PS)” belongs 64%.
Still for that read-out and setting: to “TGTTTATACCCTTTCCAA (sugars ldddldddddddddldll, PS)” belongs 58%; to “TGTTTCCATCTACTATTA (sugars l1 d4 l1 d8 l4, PS)”, 67%.
Still for that read-out and setting: to “TGTTTCCATCTACTATTA (sugars ldldddddddddddldll, PS)” belongs 61%.
